Assay results: US12479831B2, “Substituted N(-methyl-D3)pyridazine-3-carboxamide or M-(methyl-D3)-nicotinamide compounds as IL-12, IL-23 and/or IFNα modulators” (BRISTOL-MYERS SQUIBB COMPANY, priority 2020, dated 2025)

tested on: IFNα-Induced STAT Phosphorylation in Human Whole Blood; assay: IFNα-Induced STAT Phosphorylation in Human Whole Blood; assay type: cell-based; conditions: 1 h incubation with compound, 1000 U/mL recombinant human IFNα A/D for 15 min, pSTAT5 (pY694) median fluorescence intensity in CD3 positive population, read-out: hWB IC50

| IC50 [nM] | SMILES |
| --- | --- |
| 228 | [2H]C([2H])([2H])NC(=O)c1cnc(Nc2cc(=O)n(C)cn2)cc1Nc1cccc(-c2ncc(F)cn2)c1OC [Example 77, 4-((3-(5-fluoropyrimidin-2-yl)-2-methoxyphenyl)amino)-N-(methyl-d3)-6-((1-methyl-6-oxo-1,6-dihydropyrimidin-4-yl)amino)nicotinamide] |
| 43 | [2H]C([2H])([2H])NC(=O)c1nnc(NC(=O)C2CC2)cc1Nc1cccc(-c2cnc(C3(O)COC3)cn2)c1OC [Example 33, 6-(cyclopropanecarboxamido)-4-((3-(5-(3-hydroxyoxetan-3-yl)pyrazin-2-yl)-2-methoxyphenyl)amino)-N-(methyl-d3)pyridazine-3-carboxamide] |
| 49 | [2H]C([2H])([2H])NC(=O)c1cnc(Nc2cc(C)n(C)n2)cc1Nc1cccc(-c2ncc(F)cn2)c1OC [Example 63, 6-((1,5-dimethyl-1H-pyrazol-3-yl)amino)-4-((3-(5-fluoropyrimidin-2-yl)-2-methoxyphenyl)amino)-N-(methyl-d3)nicotinamide] |
| 117 | [2H]C([2H])([2H])NC(=O)c1nnc(NC(=O)C2CC2)cc1Nc1cccc(-c2cnc(N3CCOCC3)cn2)c1OC [Example 57, 6-(Cyclopropanecarboxamido)-4-((2-methoxy-3-(5-morpholinopyrazin-2-yl)phenyl)amino)-N-(methyl-d3)pyridazine-3-carboxamide] |
| 146 | [2H]C([2H])([2H])NC(=O)c1cnc(Nc2cc(Cl)n(C)n2)cc1Nc1cccc(-c2ncc(F)cn2)c1OC [Example 66, 6-((5-chloro-1-methyl-1H-pyrazol-3-yl)amino)-4-((3-(5-fluoropyrimidin-2-yl)-2-methoxyphenyl)amino)-N-(methyl-d3)nicotinamide] |
| 192 | [2H]C([2H])([2H])NC(=O)c1nnc(Nc2ccn(C3CC3)n2)cc1Nc1cccc(-c2ncc(F)cn2)c1OC [Example 78, 6-((1-cyclopropyl-1H-pyrazol-3-yl)amino)-4-((3-(5-fluoropyrimidin-2-yl)-2-methoxyphenyl)amino)-N-(methyl-d3)pyridazine-3-carboxamide] |
| 242 | [2H]C([2H])([2H])NC(=O)c1nnc(NC(=O)C2CC2)cc1Nc1cccc(-c2ncc(F)cc2C#N)c1OC [Example 114] |
